≈ marks a conversion by molar mass, not a printed value.
Biological target: α-Glucosidase from Saccharomyces cerevisiae (Saccharomyces cerevisiae, UniProt P53341)
Assay: α-Glucosidase inhibiting activity (α-GIA), p-NPG substrate
Type: biochemical
Conditions: 0.5 U/ml enzyme, pH 6.8, 37°C, 5 mM p-NPG

Sequence of α-Glucosidase from Saccharomyces cerevisiae (P53341 whole entry): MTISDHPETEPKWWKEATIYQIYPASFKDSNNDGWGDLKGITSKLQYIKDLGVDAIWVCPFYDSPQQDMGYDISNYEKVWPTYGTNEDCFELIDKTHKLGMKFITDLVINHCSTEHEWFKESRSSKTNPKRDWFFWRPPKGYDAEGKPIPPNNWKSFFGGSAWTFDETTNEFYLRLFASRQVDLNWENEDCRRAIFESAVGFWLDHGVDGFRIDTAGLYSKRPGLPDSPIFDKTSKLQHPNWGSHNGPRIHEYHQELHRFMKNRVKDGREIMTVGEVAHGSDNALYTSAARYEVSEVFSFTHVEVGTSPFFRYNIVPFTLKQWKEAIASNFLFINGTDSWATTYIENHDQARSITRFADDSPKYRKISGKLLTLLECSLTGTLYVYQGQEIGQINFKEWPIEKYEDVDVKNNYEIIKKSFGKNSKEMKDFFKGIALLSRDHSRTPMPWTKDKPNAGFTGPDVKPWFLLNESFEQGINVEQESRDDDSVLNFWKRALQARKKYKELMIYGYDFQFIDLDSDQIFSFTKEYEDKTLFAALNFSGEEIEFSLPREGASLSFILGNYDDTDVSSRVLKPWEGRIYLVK

Oc1cc(O)c2c(c1)O[C@H](c1ccc(O)c(O)c1)[C@@H](O)C2 [(+)-Catechin]
IC50 α-GIA: 374.23 µg/mL (≈ 1290 µM)
